Test results from US6995159B2, “5-HT receptor ligands and uses thereof” (Pfizer Inc., priority 2001, dated 2006).

Assays:
5-HT2c receptor = assay: Functional assay (FLIPR calcium, Fluo 4-AM) in 5-HT2c expressed cells; assay type: cell-based; settings: at 10 μM; 5-HT2c expressed NIH 3T3 cells
Experimental: (§1) Swiss 3T3 cells expressing r-5HT2C, r-5HT2A, h-5HT2C or h-5HT2A receptors are seeded at a density of 12,500 cells/well in 384 well black/clear collagen-coated plates. Forty eight (48) hrs later the cells are loaded with the calcium sensitive dye, Fluo 4-AM (4 μM dissolved in DMSO containing pluronic acid) in serum free DMEM in the presence of probenicid (2.5 mM) for 75 minutes at 37° C. in a CO2 incubator. Unincorporated dye is removed by washing 3 times with a HEPES-buffered saline containing probenicid (2.5 mM) using a Skatron™ cell washer (final volume 30 μL).
(§2) Plates are added to a fluorometric imaging plate reader (FLIPR 384 available from Molecular Devices Corporation) individually and fluorescence measurements are taken every 2 seconds over an 85 seconds period. Test compound additions are made simultaneously to all 384 wells after 20 seconds of baseline recording. Concentration-response curves are generated using Graphpad Prism™ (available from GraphPad Software, Inc., San Diego, Calif.) and agonist efficacies are generated as % of the response to 10 μM 5-HT (considered as 100%). Estimation of antagonist potencies (functional Kis) are generated by measuring inhibition of the test compound response to 5-HT (10 nM for 5-HT2C and 50 nM for 5-HT2A) and applying the Cheng Prusoff equation.
The functional data for the compounds listed in the Examples above utilizing the 5-HT2c expressed NIH 3T3 cells is summarized below.

human 5HT2c receptor = molecular target: T1, human 5HT2c receptor (Homo sapiens, UniProt P28335); assay: 5HT2c binding procedure (competition binding against 3H-5HT); settings: Swiss 3T3 mouse cells transfected with human 5HT2c receptor
T1 construct: expressed in transfected cells; host or cells: Swiss 3T3 mouse cells
T1 sequence (P28335 33-458): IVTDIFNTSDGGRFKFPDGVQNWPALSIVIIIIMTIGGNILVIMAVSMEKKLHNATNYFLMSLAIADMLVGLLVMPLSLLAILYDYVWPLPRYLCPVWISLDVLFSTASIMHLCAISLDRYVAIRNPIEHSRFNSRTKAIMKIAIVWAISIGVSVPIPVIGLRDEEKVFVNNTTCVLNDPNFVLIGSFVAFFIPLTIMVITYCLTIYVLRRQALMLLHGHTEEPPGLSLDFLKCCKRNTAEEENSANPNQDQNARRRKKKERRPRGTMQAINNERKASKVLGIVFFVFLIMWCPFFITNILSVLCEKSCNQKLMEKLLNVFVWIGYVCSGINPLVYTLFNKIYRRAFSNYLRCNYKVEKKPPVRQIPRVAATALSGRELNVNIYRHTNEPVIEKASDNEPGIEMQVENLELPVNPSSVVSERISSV
Experimental: Affinity of compounds at the serotonin 5HT2c binding site is determined by competition binding in Swiss 3T3 mouse cells (available from the American Type Culture Collection (ATCC), Manassas, Va.) transfected with the human 5HT2c receptor against 3H-5HT. The method is adapted from Roth et al., J. of Pharm. And Exp. Therap., 260(3), 1362–1365 (1992). Cells are grown in DMEM high glucose medium, harvested, homogenized, centrifuged, and resuspended in 50 mM Tris-HCL. They are incubated at 37° C. for 15 minutes, centrifuged, and then resuspended into assay buffer (50 mM Tris-HCl, 4 mM CaCl2, 0.1% ascorbic acid, and 100 μM pargyline at pH 7.7) at 100 volumes per gram. Assay tubes contain 25 μL of 10 nM ^3H-5HT (1 nM final conc.), and 25 μl of vehicle (assay buffer), blank (10 μM mianserin), or test compound (10X final volume). 200 μl of tissue homogenate is added to each tube, vortexed, and incubated for 30 minutes at 37° C. Samples are then rapidly filtered under vacuum with a Skatron™ cell harvester (available from Molecular Devices Corporation, Sunnyvale, Calif.) using GF/B filters presoaked in 0.5% polyethyleneimine (PEI), and washed with 2×5 mL cold 50 mM Tris-HCl. Filter mats are removed and counted in a Wallac Betaplate counter (available from PerkinElmer Life Sciences, Gaithersburg, Md.). Percent inhibition of specific binding by test compounds is used to calculate the Ki, or extrapolate concentration of test compound necessary to inhibit one-half of the total specific binding for each compound.

5-HT2a receptor = assay: Functional assay (FLIPR calcium, Fluo 4-AM) in 5-HT2a expressed cells; assay type: cell-based; settings: 5-HT2a expressed NIH 3T3 cells
Experimental: as §1, §2
The functional data for the compounds listed in the Examples above utilizing the 5-HT2a expressed NIH 3T3 cells is summarized below.

rat 5HT2A receptor = molecular target: T2, rat 5HT2A receptor (Rattus norvegicus, UniProt P14842); assay: 5HT2A binding procedure (competition binding using 125I-DOI); settings: NIH 3T3 mouse cells transfected with rat 5HT2A receptor
T2 construct: expressed in transfected cells; host or cells: NIH 3T3 mouse cells
Experimental: Affinity of compounds at the serotonin 5HT2A binding site is determined by competition binding in NIH 3T3 mouse cells transfected with the rat 5HT2A receptor using 1251-DOI. The method was adapted from Leonhardt et al., Molecular Pharmacology, 42, 328–335 (1992). Frozen cell paste is homgenized in 50 mM tris-HCl buffer pH 7.4 containing 2 mM MgCl2 using a Polytron and centrifuged at 45000×g for ten minutes. The resulting pellet is resuspended in fresh ice-cold 50 mM tris-HCl buffer pH 7.4 containing 2 mM MgCl2 using a Polytron™ and centrifuged again at 45000×g for ten minutes. The final pellet is resuspended in 50 mM tris-HCl buffer pH 7.4 containing 2 mM MgCl2 at a concentration of 5 mg/mL. Wells in a 96 well plate contain 25 μL of 0.7 nM 1251-DOI (70 pM final conc.), and 25 μL of vehicle (assay buffer), blank (10 μM cinanserin), or test compound (10× final volume). […] Filter mats are removed, dried and counted in a Wallac Betaplate counter. Concentration-response curves of the % inhibition of specific binding and log concentration by test compounds was used to determine the IC50 for each compound and the Ki value calculated based on the Cheng-Prusof equation (Ki=IC50/(1+(L/Kd)), where L is the concentration of the radioligand used in the binding assay and the Kd is based on previous saturation studies with the radioligand.

T2 sequence (P14842 whole entry): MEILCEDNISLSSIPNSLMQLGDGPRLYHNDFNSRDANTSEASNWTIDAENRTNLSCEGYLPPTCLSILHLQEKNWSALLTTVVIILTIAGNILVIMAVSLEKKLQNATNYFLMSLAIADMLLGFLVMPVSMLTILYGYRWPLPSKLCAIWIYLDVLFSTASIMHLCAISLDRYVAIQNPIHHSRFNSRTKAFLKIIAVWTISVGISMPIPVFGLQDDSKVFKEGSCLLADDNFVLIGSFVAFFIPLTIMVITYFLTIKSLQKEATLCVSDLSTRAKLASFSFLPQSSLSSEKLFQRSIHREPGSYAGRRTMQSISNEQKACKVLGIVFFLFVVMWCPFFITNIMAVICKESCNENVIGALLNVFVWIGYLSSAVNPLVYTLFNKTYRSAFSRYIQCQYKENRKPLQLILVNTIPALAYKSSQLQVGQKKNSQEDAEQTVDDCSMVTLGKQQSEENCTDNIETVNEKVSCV

| 5HT2a binding activity (rat 5HT2A receptor) | Compound | 5-HT2c functional activity (5-HT2c receptor) | Ki (human 5HT2c receptor) [nM] | 5-HT2a functional activity (5-HT2a receptor; at 10 μM) | functional mode at 5-HT2a (partial agonist / full antagonist) (5-HT2a receptor) |
| --- | --- | --- | --- | --- | --- |
| no binding activity | C[C@@H]1CN(c2ccnc(OCc3cccc(Cl)c3)n2)C[C@H](C)N1 [Example 1-NN, 2-(3-Chloro-benzyloxy)-4-[(3R,5S)-dimethyl-piperazin-1-yl]-pyrimidine] | no 5-HT2c functional activity | > 500 | no functional activity | – |
| – | Cl.c1ccc(COc2nccc(N3CCNCC3)n2)nc1 [Example 5-B, 4-Piperazin-1-yl-2-(pyridin-2-ylmethoxy)-pyrimidine, hydrochloride] | – | > 500 | – | full antagonists |
| – | Cc1cccc(COc2nccc(N3CCNCC3)n2)n1.Cl [Example 5-C, 2-(6-Methyl-pyridin-2-ylmethoxy)-4-piperazin-1-yl-pyrimidine, hydrochloride] | – | > 500 | – | full antagonists |
